Source: ChEMBL document CHEMBL4619782, “The Structural Basis for Nonsteroidal Anti-Inflammatory Drug Inhibition of Human Dihydrofolate Reductase” (J Med Chem, 2020)

What was measured:
Dihydrofolate reductase = molecular target: T1, Dihydrofolate reductase (Homo sapiens, UniProt P00374); assay: Inhibition of human DHFR in presence of DHF and NADPH by UV-vis spectrometry by Lineweaver-Burk plot analysis
T1 sequence (P00374 whole entry): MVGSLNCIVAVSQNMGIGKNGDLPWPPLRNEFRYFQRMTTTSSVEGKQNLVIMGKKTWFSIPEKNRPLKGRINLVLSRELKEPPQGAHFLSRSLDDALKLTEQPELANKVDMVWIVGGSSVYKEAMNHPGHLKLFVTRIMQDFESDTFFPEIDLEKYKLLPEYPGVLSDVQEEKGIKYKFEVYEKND

[1] = Inhibition of Escherichia coli DHFR
[2] = Inhibition of Lactobacillus casei DHFR; set-up: species or system Lacticaseibacillus casei
[3] = Selectivity index, ratio of Ki for Lactobacillus casei DHFR to Ki for human DHFR
[4] = Selectivity index, ratio of Ki for Escherichia coli DHFR to Ki for human DHFR
[5] = molecular target: Bifunctional purine biosynthesis protein ATIC (Homo sapiens, UniProt P31939); assay: Inhibition of AICAR transformylase (unknown origin)
Chain of Bifunctional purine biosynthesis protein ATIC (P31939 whole entry): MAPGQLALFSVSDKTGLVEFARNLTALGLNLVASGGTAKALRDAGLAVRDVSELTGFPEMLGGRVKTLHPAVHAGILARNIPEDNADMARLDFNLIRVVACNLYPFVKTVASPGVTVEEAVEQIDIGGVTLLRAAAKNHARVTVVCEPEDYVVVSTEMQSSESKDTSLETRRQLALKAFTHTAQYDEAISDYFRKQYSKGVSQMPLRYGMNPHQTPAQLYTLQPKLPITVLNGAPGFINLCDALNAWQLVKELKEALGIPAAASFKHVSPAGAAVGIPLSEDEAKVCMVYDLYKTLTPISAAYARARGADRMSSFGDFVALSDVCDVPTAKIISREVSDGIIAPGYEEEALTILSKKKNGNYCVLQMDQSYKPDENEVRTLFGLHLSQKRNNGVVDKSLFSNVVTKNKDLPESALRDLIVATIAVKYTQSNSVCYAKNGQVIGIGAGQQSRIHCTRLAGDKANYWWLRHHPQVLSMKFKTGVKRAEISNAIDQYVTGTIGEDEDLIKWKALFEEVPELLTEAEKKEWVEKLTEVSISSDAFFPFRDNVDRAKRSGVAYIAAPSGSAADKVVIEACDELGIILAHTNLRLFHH

Compound | Ki (Dihydrofolate reductase) [µM] | other results
O=C(O)c1cc(-c2ccccc2)ccc1O | 48 | –
Nc1ccnc(N)n1 [DIAMINOPYRIMIDINE] | – | Ki [1]: 1800 µM; Ki [2]: 1800 µM; Ratio Ki [3]: 10; Ratio Ki [4]: 10
O=C(O)Cc1ccccc1Nc1c(Cl)cccc1Cl [DICLOFENAC] | 160 | –
O=C(O)c1cc(-c2ccc(F)cc2F)ccc1O [DIFLUNISAL] | 34 | –
CCc1cccc2c3c([nH]c12)C(CC)(CC(=O)O)OCC3 (configuration not stated) [ETODOLAC] | 1800 | –
O=C(O)CCC(=O)c1ccc(-c2ccccc2)cc1 [FENBUFEN] | 360 | –
O=C(O)CNC(=O)c1ccccc1 [HIPPURIC ACID] | 17000 | –
Cc1cccc(Nc2ccccc2C(=O)O)c1C [MEFENAMIC ACID] | 72 | –
CN(C)C(=N)NC(=N)N [METFORMIN] | 18000 | IC50 [1]: 17900 µM
N=C(N)NC(=N)NCCc1ccccc1 [PHENFORMIN] | 140 | IC50 [1]: 170 µM
O=C(O)c1cc(/N=N/c2ccc(S(=O)(=O)Nc3ccccn3)cc2)ccc1O [SULFASALAZINE] | – | Ki [5]: 22 µM

The next lines start with results.

Ki (Dihydrofolate reductase) [µM] | Compound | other results
3400 | COc1ccc2cc([C@@H](C)C(=O)O)ccc2c1 | –
180 | Nc1ccc(C(=O)N[C@@H](CCC(=O)O)C(=O)O)cc1 | –
560 | CC(C)Cc1ccc(C(C)C(=O)O)cc1 (configuration not stated) [IBUPROFEN] | –
7000 | COc1ccc2cc([C@H](C)C(=O)O)ccc2c1 [NAPROXEN] | –
2800 | N[C@@H](Cc1c[nH]c2ccccc12)C(=O)O [TRYPTOPHAN] | IC50 (Dihydrofolate reductase): 6500 µM
